The results in this text go back to patent US10954269B2, “Anti-inflammatory tripeptides” (Dr. August Wolff Gmbh & Co. KG Arzneimittel, priority 2013, dated 2021).

One assay has as its system Balb/c mice. As to the kind of experiment: Imiquimod-induced psoriasis in mice. Type of assay: in vivo. As to conditions: i.v. The method, then:
Psoriasis in Balb/c mice is induced by daily application of topical Imiquimod for 8 days. Animal are treated with the test items (topical or systemically). On day 9 the skin phenotype is characterized using a clinical score system (0=normal mouse skin; 1=mild reddening; 2=erythema; 3=erythema, swelling; 4=erythema, swelling, scaling; 5=erythema, swelling, scaling, (bloody) lesions). Skin is analyzed histologically. Lymph nodes are analyzed by flow cytometry and RT-qPCR. mRNA expression in lesional skin is analyzed by RT-qPCR. Cytokine concentrations in the serum are assessed using the Luminex technology.

The next assay has as its system C57BL/6 mice. Briefly: DSS-induced colitis in mice. As to conditions: i.p. Type of assay: in vivo. The protocol: Colitis is induced by treatment of C57BL/6 mice with 2.5% dextran sulfate (DSS) in the drinking water for 7 days. Mice are treated with the test item. Weight is monitored daily. At day 8 mice are scarified. A haemocult test is performed. The size of the colon is measured. Colitis is determined using a scoring system in H&E stains. mRNA expression in colon samples is analyzed by RT-qPCR.

[ ]: non-standard residue; d: D form. Aib = CC(C)(N)C(=O)O

On to H-Phe-Pro-[Aib]-OH [Example 13], for which, in the assay on Balb/c mice, the “concentrations of TNF-α and IL-17 in the serum” value is given as “reduced”; the “mRNA expression of IL-17, IFN-γ, IL-23, IL-36 and IL-22 in lesional skin” value is “reduced”. Further, in the assay with Balb/c mice (compared to vehicle control), the “size of the rete ridges” value is listed as “decreased”. Besides, the clinical score result with Balb/c mice (day 9) is given as “reduced”. In the assay with C57BL/6 mice, the colon size entry is listed as “partly normalized” and the disease in histology result is listed as “amelioration”. Further, in the assay on C57BL/6 mice (compared to vehicle control), the “mRNA expression of LY-6G, MPO, IFN-γ, IL-6 and TNF-α (colon)” value is “reduced”; the weight loss result was “decreased”.
